Assay results published in patent EP0922044B1, “PYRROLO(3,2-C) QUINOLINE DERIVATIVES” (PHARMACIA & UPJOHN S.p.A., priority 1996, dated 1998).

Target: T1, kynurenine-3-hydroxylase (Rattus norvegicus, UniProt O88867)
T1 construct: Rat liver mitochondrial extract was used as enzymatic preparation for this assay; from tissue; host or cells: rat liver mitochondrial extract
Test: Kynurenine-3-hydroxylase assay in rat liver (radiometric, release of tritiated water, mitochondrial extract)
Assay type: biochemical
Details: 37°C, 30 min, 0.025 mM L-kynurenine, read-out: KYN-3-OH inhibition (IC50) Liver
Method: Kynurenine-3-hydroxylase assay in rat liver
The assay for kynurenine 3-hydroxylase was based on enzymatic synthesis of tritiated water during hydroxylation reaction. Radiolabelled water was quantified following selective adsorption of the isotopic substrate and its metabolites with active charcoal.
Rat liver mitochondrial extract was used as enzymatic preparation for this assay.
The assay for kynurenine 3-hydroxylase activity was carried out at 37°C for a time of 30 min. The reaction mixture of a total volume of […] was constituted of 44 mg of suspended extract, 100 mM Tris/Cl buffer pH 8.1, 10 mM EDTA, 100mM KCl, 0.8 mM NADPH, 0.025 mM L-kynurenine, 0.5 mCi L-(3,5-^3H)Kynurenine (10 Ci/mmol) and […] of different concentration of inhibitor solutions. After the incubation the reaction was terminated by the addition of 1 mL of 7.5% (w/v) activated charcoal, vortexed and centrifugated for 7 min.
A […] of supernatant was counted by scintillation spectroscopy in 5 ml of liquid scintillation.

T1 sequence (O88867 whole entry): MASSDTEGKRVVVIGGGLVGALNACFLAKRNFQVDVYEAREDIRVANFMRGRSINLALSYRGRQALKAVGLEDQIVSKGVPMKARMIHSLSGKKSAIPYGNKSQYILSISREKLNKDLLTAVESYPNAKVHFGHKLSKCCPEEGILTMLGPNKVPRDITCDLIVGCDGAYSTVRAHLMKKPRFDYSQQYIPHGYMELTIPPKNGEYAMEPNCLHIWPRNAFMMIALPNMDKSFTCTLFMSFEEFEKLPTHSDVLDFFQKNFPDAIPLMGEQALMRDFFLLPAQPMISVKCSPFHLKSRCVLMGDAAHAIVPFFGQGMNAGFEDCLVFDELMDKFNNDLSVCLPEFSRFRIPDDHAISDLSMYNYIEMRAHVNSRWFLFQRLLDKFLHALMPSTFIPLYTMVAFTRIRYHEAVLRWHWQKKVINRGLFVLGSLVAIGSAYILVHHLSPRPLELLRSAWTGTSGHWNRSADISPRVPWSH

Row | SMILES | IC50 [µM]
1 | O=C(O)c1nc2cc(Cl)ccc2c2[nH]cc(-c3ccccc3)c12 [FCE 29464, 7-chloro-3-phenyl-1H-pyrrolo[3,2-c] quinoline-4-carboxylic acid] | 34
2 | Cc1c[nH]c2c1c(C(=O)O)nc1ccc(Cl)cc12 [FCE 29370, 8-chloro-3-methyl-1H-pyrrolo[3,2-c] quinoline-4-carboxylic acid] | 61
